Results on ten compounds are retold here after US9718817B2, “Aryl and heteroaryl ether compounds as ROR gamma modulators” (Glenmark Pharmaceuticals S.A., priority 2014, dated 2017).

The test has as its target T1, GST-tagged ROR gamma ligand binding domain (LBD) (Homo sapiens, UniProt P51449).
T1 construct: purchased Invitrogen
T1 sequence (P51449 269-508 limits assumed): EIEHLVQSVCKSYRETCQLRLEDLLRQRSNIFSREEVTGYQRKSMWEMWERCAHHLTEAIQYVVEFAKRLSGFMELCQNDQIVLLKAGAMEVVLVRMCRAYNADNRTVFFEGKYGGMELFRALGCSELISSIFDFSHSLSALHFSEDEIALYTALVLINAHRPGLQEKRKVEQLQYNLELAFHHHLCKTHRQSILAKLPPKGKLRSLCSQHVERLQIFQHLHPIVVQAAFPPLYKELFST
Description: TR-FRET assay for ROR gamma (LanthaScreen co-activator peptide recruitment). It counts as biochemical. The settings on record: for pIC50: class symbols, from dose response curve; for inhibition at 1 µM: compound 1 μM; for inhibition at 1 µM / inhibition at 10 µM: TR-FRET ratio 520/495, percent of control; for inhibition at 10 µM: compound 10 μM. An outline of the steps: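 Antagonist mode: 10 nM GST-RORγ LBD pre-incubated with compound 1 h at 22 °C in 25 mM HEPES pH 7.4, 100 mM NaCl, 5 mM DTT, 0.01% BSA, 4% DMSO final. Then 300 nM fluorescein-D22 co-activator peptide plus 10 nM Tb-anti-GST added, 1 h at room temperature. IC50 by nonlinear regression of the 520/495 TR-FRET ratio as percent of no-compound control.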

Each structure is given as a SMILES string. pIC50: −log10 of the molar value. Bounds are passed on as bounds.

Regarding `CCS(=O)(=O)c1ccc(CC(=O)Nc2ccc(C#CC(C)(C)Oc3ccc(Cl)cc3Cl)cc2)cc1` [Example 63, N-{4-[3-(2,4-Dichloro-phenoxy)-3-methyl-but-1-yn-1-yl]-phenyl}-2-(4-ethanesulfonyl-phenyl)-acetamide], the pIC50 is above 7.30, the inhibition at 1 µM came to 80.5% and the inhibition at 10 µM was 84.5%.
The like results for `CCS(=O)(=O)c1ccc(CC(=O)Nc2ccc(C#CC(C)(C)Oc3ccc(Cl)cc3)cc2)cc1` [Example 64, N-{4-[3-(4-Chloro-phenoxy)-3-methyl-but-1-yn-1-yl]-phenyl}-2-(4-ethanesulfonyl-phenyl)-acetamide] were, in that order, above 7.30, 82.2% and 84.2%.
The like results for `CCS(=O)(=O)c1ccc(CC(=O)Nc2ccc(C#CC(C)(C)Oc3ccc(Cl)cc3F)cc2)cc1` [Example 65, N-{4-[3-(4-Chloro-2-fluoro-phenoxy)-3-methyl-but-1-yn-1-yl]-phenyl}-2-(4-ethanesulfonyl-phenyl)-acetamide] were, in that order, above 7.30, 83.9% and 88.2%.
The like results for `CCS(=O)(=O)c1ccc(CC(=O)Nc2ccc(C#CC(C)(C)Oc3ccc(Cl)c(F)c3)cc2)cc1` [Example 66, N-{4-[3-(4-Chloro-3-fluoro-phenoxy)-3-methyl-but-1-yn-1-yl]-phenyl}-2-(4-ethanesulfonyl-phenyl)-acetamide] were, in that order, above 7.30, 84.3% and 87.5%.
`CCS(=O)(=O)c1ccc(CC(=O)Nc2ccc(C#CC(C)(C)Oc3ccc(F)cc3Cl)cc2)cc1` [Example 67, N-{4-[3-(2-Chloro-4-fluoro-phenoxy)-3-methyl-but-1-yn-1-yl]-phenyl}-2-(4-ethanesulfonyl-phenyl)-acetamide]: the inhibition at 1 µM was determined as 70.5% and the inhibition at 10 µM was 75.7%.
The like results for `CCS(=O)(=O)c1ccc(CC(=O)Nc2ccc(C#CC(C)(C)Oc3ccc(F)c(Cl)c3)cc2)cc1` [Example 68, N-{4-[3-(3-Chloro-4-fluoro-phenoxy)-3-methyl-but-1-yn-1-yl]-phenyl}-2-(4-ethanesulfonyl-phenyl)-acetamide] were, in that order, 70.7% and 79.9%.
Regarding `CCS(=O)(=O)c1ccc(CC(=O)Nc2ccc(C#CC(C)(C)Oc3ccc(F)cc3F)cc2)cc1` [Example 69, N-{4-[3-(2,4-Difluoro-phenoxy)-3-methyl-but-1-yn-1-yl]-phenyl}-2-(4-ethanesulfonyl-phenyl)-acetamide], the pIC50 was 7.00 to 7.30, the inhibition at 1 µM was determined as 71.6% and the inhibition at 10 µM is 81.8%.
The like results for `CCS(=O)(=O)c1ccc(CC(=O)Nc2ccc(C#CC(C)(C)Oc3ccc(F)c(F)c3)cc2)cc1` [Example 70, N-{4-[3-(3,4-Difluoro-phenoxy)-3-methyl-but-1-yn-1-yl]-phenyl}-2-(4-ethanesulfonyl-phenyl)-acetamide] were, in that order, above 7.30, 77.7% and 81.3%.
Regarding `CCS(=O)(=O)c1ccc(CC(=O)Nc2ccc(C#CC(C)(C)Oc3cc(F)c(F)c(F)c3)cc2)cc1` [Example 71, 2-(4-Ethanesulfonyl-phenyl)-N-{4-[3-methyl-3-(3,4,5-trifluoro-phenoxy)-but-1-yn-1-yl]-phenyl}-acetamide], the pIC50 was above 7.30, the inhibition at 1 µM worked out at 75.9% and the inhibition at 10 µM turned out to be 79.9%.
The like results for `CCS(=O)(=O)c1ccc(CC(=O)Nc2ccc(C#CC(C)(C)Oc3ccc(F)c(F)c3F)cc2)cc1` [Example 72, 2-(4-Ethanesulfonyl-phenyl)-N-{4-[3-methyl-3-(2,3,4-trifluoro-phenoxy)-but-1-yn-1-yl]-phenyl}-acetamide] were, in that order, above 7.30, 76.2% and 79.7%.
